Laboratory results taken from US9115122B2, “Non-ATP dependent inhibitors of extracellular signal-regulated kinase (ERK)” (UNIVERSITY OF MARYLAND, BALTIMORE, priority 2012, dated 2015).

How the values were obtained:
[1] = test system: MEK1-induced AP-1 promoter activity; experiment: AP-1 promoter luciferase assay, HeLa cells expressing active MEK1 mutant; assay type: cell-based; conditions: Homo sapiens, 4 hours, read-out: IC50 inhibition of MEK1-induced AP-1 promoter activity
Outline: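 HeLa transfected with AP-1 luciferase reporter; EGF-stimulated set pretreated 20 min with compound then EGF 25 ng/mL for 4.5 hr, MEK1 set co-transfected with constitutively active MEK1 mutant and compound-treated for final 4 hours. Luciferase normalized to protein, expressed relative to EGF-only or active MEK1-only; mean of three experiments.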

ERK2 L114A = ERK2 L114A (Rattus norvegicus (Rat), UniProt P63086, L114A); experiment: Fluorescence quenching (FQ) binding affinity; conditions: read-out: KD L114A (Site 2)
Sequence of ERK2 L114A (P63086 whole entry L114A): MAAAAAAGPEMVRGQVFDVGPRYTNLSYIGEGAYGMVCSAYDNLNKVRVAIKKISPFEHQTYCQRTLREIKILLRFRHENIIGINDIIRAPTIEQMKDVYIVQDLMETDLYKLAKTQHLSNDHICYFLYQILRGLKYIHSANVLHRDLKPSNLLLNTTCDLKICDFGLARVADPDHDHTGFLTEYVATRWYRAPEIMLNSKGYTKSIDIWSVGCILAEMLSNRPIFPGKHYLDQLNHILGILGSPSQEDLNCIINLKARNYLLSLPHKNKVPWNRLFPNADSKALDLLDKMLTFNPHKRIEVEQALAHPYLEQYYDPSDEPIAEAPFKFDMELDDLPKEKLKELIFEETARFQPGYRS

[2] = test system: ERK1/2-mediated phosphorylation of Elk-1; experiment: Immunoblot of ERK1/2-mediated Elk-1 phosphorylation in EGF treated HeLa cells; assay type: cell-based; conditions: 100 μM, EGF 25 ng/mL 10 min
Protocol: (b) HeLa cells were pre-incubated for 30 min with indicated compounds (100 μM) followed by treatment with EGF (25 ng/mL) for 10 min. to activate ERK1/2 signaling. Lysates were immunoblotted for phosphorylated Elk1 (pElk1 S383) or active ERK1/2 (pERK1/2). […] The MEK1/2 inhibitor U0126 (10 μM) was used to block all ERK1/2 signaling and α-tubulin expression was used as a protein loading control.
Proteins were separated by SDS-PAGE, analyzed by immunoblotting, and detected using enhanced chemiluminescence (ECL, GE Healthcare, United Kingdom).

ERK2 R275A = ERK2 R275A (Rattus norvegicus (Rat), UniProt P63086, R275A); experiment: Fluorescence quenching (FQ) binding affinity; conditions: read-out: KD R275A (Site 3)
Sequence of ERK2 R275A (P63086 whole entry R275A): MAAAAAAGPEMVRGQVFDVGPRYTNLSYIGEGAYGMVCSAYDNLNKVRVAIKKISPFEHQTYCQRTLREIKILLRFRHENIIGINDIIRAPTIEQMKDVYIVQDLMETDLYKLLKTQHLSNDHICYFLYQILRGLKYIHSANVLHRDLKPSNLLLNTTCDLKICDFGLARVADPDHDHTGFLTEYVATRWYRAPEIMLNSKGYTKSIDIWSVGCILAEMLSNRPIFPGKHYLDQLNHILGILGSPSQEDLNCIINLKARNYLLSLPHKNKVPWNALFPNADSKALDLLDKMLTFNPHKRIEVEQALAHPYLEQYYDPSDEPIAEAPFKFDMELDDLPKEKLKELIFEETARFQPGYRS

ERK2 L265A = ERK2 L265A (Rattus norvegicus (Rat), UniProt P63086, L265A); experiment: Fluorescence quenching (FQ) binding affinity; conditions: read-out: KD L265A (Site 4)
Sequence of ERK2 L265A (P63086 whole entry L265A): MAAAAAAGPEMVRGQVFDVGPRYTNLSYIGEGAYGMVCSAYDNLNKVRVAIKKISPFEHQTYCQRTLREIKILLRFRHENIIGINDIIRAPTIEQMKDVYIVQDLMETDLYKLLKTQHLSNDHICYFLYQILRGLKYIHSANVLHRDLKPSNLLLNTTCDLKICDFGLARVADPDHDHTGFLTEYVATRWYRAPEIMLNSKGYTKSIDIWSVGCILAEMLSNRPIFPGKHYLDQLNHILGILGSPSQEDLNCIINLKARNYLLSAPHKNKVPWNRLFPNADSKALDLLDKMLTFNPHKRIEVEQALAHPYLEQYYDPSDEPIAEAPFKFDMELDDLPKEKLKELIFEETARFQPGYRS

ERK2 L198A/L235A = ERK2 L198A/L235A (Rattus norvegicus (Rat), UniProt P63086, L198A/L235A); experiment: Fluorescence quenching (FQ) binding affinity; conditions: read-out: KD L198A/L235A (Site 5)
Sequence of ERK2 L198A/L235A (P63086 whole entry L198A/L235A): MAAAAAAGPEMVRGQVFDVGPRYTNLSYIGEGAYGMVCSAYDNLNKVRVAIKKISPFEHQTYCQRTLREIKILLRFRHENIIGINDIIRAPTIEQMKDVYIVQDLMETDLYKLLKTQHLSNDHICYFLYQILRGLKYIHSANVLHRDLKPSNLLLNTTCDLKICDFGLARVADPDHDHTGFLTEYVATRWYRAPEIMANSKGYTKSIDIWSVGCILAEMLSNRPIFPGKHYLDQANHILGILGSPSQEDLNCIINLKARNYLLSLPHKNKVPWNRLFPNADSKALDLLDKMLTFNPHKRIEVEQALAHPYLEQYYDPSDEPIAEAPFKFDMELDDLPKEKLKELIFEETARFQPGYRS

ERK2 Y191A = ERK2 Y191A (Rattus norvegicus (Rat), UniProt P63086, Y191A); experiment: Fluorescence quenching (FQ) binding affinity; conditions: read-out: KD Y191A (Site 2)
Sequence of ERK2 Y191A (P63086 whole entry Y191A): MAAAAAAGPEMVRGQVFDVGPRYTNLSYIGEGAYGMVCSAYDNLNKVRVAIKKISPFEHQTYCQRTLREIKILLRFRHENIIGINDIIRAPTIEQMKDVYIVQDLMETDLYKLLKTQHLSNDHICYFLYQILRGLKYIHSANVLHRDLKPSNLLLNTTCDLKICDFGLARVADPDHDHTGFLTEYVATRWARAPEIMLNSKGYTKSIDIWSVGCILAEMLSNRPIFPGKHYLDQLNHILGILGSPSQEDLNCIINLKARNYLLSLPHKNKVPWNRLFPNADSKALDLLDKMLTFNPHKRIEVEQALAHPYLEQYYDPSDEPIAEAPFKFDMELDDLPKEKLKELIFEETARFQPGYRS

ERK2 vs p38α MAP kinase = experiment: Selectivity for ERK2 compared to p38α MAP kinase; assay type: binding
ERK2 L235A = ERK2 L235A (Rattus norvegicus (Rat), UniProt P63086, L235A); experiment: Fluorescence quenching (FQ) binding affinity; conditions: read-out: KD L235A (Site 5)
Sequence of ERK2 L235A (P63086 whole entry L235A): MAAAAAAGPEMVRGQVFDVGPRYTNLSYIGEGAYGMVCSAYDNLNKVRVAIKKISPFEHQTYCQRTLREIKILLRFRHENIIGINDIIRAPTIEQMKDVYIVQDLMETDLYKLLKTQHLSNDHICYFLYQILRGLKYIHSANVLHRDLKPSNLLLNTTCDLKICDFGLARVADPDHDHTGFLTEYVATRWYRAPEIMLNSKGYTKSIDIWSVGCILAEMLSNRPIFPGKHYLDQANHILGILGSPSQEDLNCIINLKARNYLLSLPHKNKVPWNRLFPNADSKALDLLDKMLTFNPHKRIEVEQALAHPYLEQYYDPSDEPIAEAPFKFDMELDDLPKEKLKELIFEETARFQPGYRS

- IC50 [1]: ~40000 nM
- Kd (ERK2 L114A): 27 ± 10 nM
- Kd (ERK2 R275A): 240 nM
- Kd (ERK2 L265A): 280 nM
- Kd (ERK2 L198A/L235A): > 20000 nM
- Kd (ERK2 Y191A): 130 nM
- selectivity for ERK2 as compared to p38α MAP kinase (ERK2 vs p38α MAP kinase): ~150 fold
- Kd (ERK2 L235A): 90 ± 20 nM
SMILES: O=S1(=O)C=CC(OS(=O)(=O)c2ccccc2)C1 (stereo not drawn) [SF-3-026]
- inhibition of ERK1/2-mediated Elk-1 phosphorylation [2]: inhibit ERK1/2-mediated phosphorylation
